Where “and” joins values, the source holds several entries; their conditions need not be identical. Identical values can stand only once.
Assays:
[1] = target: T1, SERT WT (Homo sapiens, UniProt P31645); test: [3H]S-CIT competition (equilibrium) binding on COS-7 membranes;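 further: transiently transfected cell membranes incubated 1 h at room temperature with 5–10 nM [3H]S-CIT, nonspecific binding defined using 5 µM paroxetine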
T1 construct: expressed in transfected cells; host or cells: COS-7

[2] = target: T1, SERT WT; test: [3H]5-HT uptake in intact COS-7 cells; assay type: cell-based; parameters: 5-HT uptake: unit not given here; conditions: for 5-HT uptake: Fig 5B
[3] = target: T2, SERT F556R (Homo sapiens, UniProt P31645, F556R); test: [3H]5-HT uptake in intact COS-7 cells; assay type: cell-based; conditions: for 5-HT uptake inhibition by Lu AF60097: Fig 5A
T2 construct: expressed in transfected cells; host or cells: COS-7
T2 sequence (P31645 whole entry F556R): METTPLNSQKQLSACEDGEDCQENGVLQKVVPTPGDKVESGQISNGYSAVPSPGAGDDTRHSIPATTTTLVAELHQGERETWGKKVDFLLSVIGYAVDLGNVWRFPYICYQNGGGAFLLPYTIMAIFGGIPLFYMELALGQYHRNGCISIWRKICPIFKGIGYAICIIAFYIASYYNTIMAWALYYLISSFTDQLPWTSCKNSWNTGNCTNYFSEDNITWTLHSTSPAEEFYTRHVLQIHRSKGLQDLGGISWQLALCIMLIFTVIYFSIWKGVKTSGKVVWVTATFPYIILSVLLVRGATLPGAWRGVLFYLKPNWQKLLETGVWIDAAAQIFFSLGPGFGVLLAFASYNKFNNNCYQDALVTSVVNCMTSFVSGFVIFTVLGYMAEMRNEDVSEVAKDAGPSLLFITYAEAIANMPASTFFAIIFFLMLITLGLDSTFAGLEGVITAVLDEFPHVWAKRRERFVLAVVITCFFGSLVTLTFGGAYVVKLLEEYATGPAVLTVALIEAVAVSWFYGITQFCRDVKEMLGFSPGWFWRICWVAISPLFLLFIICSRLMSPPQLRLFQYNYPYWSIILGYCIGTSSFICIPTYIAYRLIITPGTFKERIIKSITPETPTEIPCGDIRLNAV

T1 sequence (P31645 whole entry): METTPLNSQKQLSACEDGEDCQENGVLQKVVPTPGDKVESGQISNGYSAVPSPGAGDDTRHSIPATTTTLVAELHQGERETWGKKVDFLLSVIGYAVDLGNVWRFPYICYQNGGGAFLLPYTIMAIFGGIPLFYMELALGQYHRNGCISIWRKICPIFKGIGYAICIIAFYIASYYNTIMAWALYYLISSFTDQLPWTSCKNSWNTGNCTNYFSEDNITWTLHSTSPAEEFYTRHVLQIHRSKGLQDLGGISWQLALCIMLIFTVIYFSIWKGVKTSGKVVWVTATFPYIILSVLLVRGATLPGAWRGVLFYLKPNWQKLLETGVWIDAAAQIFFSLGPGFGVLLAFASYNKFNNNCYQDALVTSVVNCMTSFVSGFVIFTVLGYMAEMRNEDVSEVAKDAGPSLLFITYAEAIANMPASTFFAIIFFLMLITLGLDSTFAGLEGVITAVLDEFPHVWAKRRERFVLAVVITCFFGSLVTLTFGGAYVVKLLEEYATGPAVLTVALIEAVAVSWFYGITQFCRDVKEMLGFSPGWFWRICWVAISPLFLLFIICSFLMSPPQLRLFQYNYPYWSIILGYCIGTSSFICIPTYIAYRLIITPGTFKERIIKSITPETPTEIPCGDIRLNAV

## NC(=O)c1ccc2c(c1)CO[C@@]2(CCCN1CCC(c2ccc3ccc(=O)[nH]c3c2)CC1)c1ccc(F)cc1 [Lu AF60097, (S)-1-(4-fluorophenyl)-1-(3-(4-(2-oxo-1,2-dihydroquinolin-7-yl)piperidin-1-yl)propyl)-1,3-dihydroisobenzofuran-5-carboxamide]
[1]; COS-7 membranes, SERT WT, read-out: Inhibition of [^3H]S-CIT binding (IC50)
  IC50: 270 nM
[1]; log[Lu AF60097] -4.9586
  Displacement of [3H]S-CIT binding (normalized bound, Fig S6): 0.02221 and 0.02599
[1]; log[Lu AF60097] -6.4638
  Displacement of [3H]S-CIT binding (normalized bound, Fig S6): 0.4362 and 0.4819 and 0.2888
[1]; log[Lu AF60097] -6.7648
  Displacement of [3H]S-CIT binding (normalized bound, Fig S6): 0.6201 and 0.6384 and 0.4362
[1]; log[Lu AF60097] -7.0658
  Displacement of [3H]S-CIT binding (normalized bound, Fig S6): 0.7487 and 0.8379 and 0.6201
[1]; log[Lu AF60097] -7.3668
  Displacement of [3H]S-CIT binding (normalized bound, Fig S6): 0.8096 and 1.0297 and 0.7487
[1]; log[Lu AF60097] -7.6679
  Displacement of [3H]S-CIT binding (normalized bound, Fig S6): 0.9347 and 1.009 and 0.8096
[1]; log[Lu AF60097] -7.8213
  Displacement of [3H]S-CIT binding (normalized bound, Fig S6): 0.9058
[1]; log[Lu AF60097] -8.2985
  Displacement of [3H]S-CIT binding (normalized bound, Fig S6): 0.9777 and 0.9058
[1]; log[Lu AF60097] -9
  Displacement of [3H]S-CIT binding (normalized bound, Fig S6): 0.999 and 0.9777
[2]; 10 nM Lu AF60097
  Vmax 5-HT: 1232 ± 48 fmol/min
[2]; 20 nM Lu AF60097
  Vmax 5-HT: 1279 ± 64 fmol/min
[2]; 40 nM Lu AF60097
  Vmax 5-HT: 1007 ± 58 fmol/min
[2]; 80 nM Lu AF60097
  Vmax 5-HT: 1361 ± 78 fmol/min
[2]; 160 nM Lu AF60097
  Vmax 5-HT: 1235 ± 34 fmol/min
[2]; 320 nM Lu AF60097
  Vmax 5-HT: 973 ± 25 fmol/min
[2]; 640 nM Lu AF60097
  Vmax 5-HT: 971 ± 21 fmol/min
[2]; COS-7, read-out: Decrease (inhibition) of [^3H]5-HT uptake relative to control, IMI 4 nM, Lu AF60097 27 nM, alone or together
  inhibition at 0.027 µM: 5 ± 1.8%
[2]; 0.1474 µM 5HT, 10 nM AF60097
  5-HT uptake: 289.4 and 268.7 and 257.4 and 246.6 and 314.6
[2]; 0.1474 µM 5HT, 20 nM AF60097
  5-HT uptake: 295.7 and 305.6 and 246.2 and 292.1 and 271.4
[2]; 0.1474 µM 5HT, 80 nM AF60097
  5-HT uptake: 149 and 175.1 and 138.2 and 177.3 and 172.8
[2]; 0.1474 µM 5HT, 160 nM AF60097
  5-HT uptake: 193.5 and 184.1 and 172.4 and 177.3 and 155.3
[2]; 0.1474 µM 5HT, 320 nM AF60097
  5-HT uptake: 124.2 and 120.2 and 98.55 and 160.4 and 125
[2]; 0.1474 µM 5HT, 640 nM AF60097
  5-HT uptake: 82.89 and 76.41 and 75.6 and 73.71
[2]; 0.2395 µM 5HT, 10 nM AF60097
  5-HT uptake: 401.9 and 351.5 and 378.9 and 356.9 and 437.9
[2]; 0.2395 µM 5HT, 20 nM AF60097
  5-HT uptake: 431.1 and 402.3 and 370.8 and 428 and 381.2
[2]; 0.2395 µM 5HT, 80 nM AF60097
  5-HT uptake: 239.4 and 237.2 and 197.1 and 278.1 and 258.3
[2]; 0.2395 µM 5HT, 160 nM AF60097
  5-HT uptake: 283.1 and 275.9 and 262.8 and 254.3 and 202.5
[2]; 0.2395 µM 5HT, 320 nM AF60097
  5-HT uptake: 170.4 and 178.2 and 155 and 215.5 and 193.6
[2]; 0.2395 µM 5HT, 640 nM AF60097
  5-HT uptake: 119.3 and 114.2 and 108 and 121.2
[2]; 0.4844 µM 5HT, 10 nM AF60097
  5-HT uptake: 585
[2]; 0.4844 µM 5HT, 20 nM AF60097
  5-HT uptake: 624.2 and 642.2 and 563.4 and 555.8 and 512.1
[2]; 0.4844 µM 5HT, 160 nM AF60097
  5-HT uptake: 469.4 and 426.6 and 404.6 and 365.9 and 356
[2]; 0.4844 µM 5HT, 320 nM AF60097
  5-HT uptake: 301.6 and 284.3 and 264.9
[2]; Fig 5C, 27 nM AF60097
  5-HT uptake relative to ctrl (ctrl = 100): 100 and 97 and 96 and 91 and 88
[2]; IMI 4 nM, Lu AF60097 27 nM, alone or together
  [^3H]5-HT uptake (in % of buffer/control): 95 ± 1.8%
[2]; SERT WT
  Ki: 220 nM
[2]; hSERT in COS-7 cells
  IC50: 207 nM
[3]; [Lu AF60097] -5.5
  5-HT uptake inhibition by Lu AF60097: 0.1354
[3]; [Lu AF60097] -6
  5-HT uptake inhibition by Lu AF60097: 0.2671
[3]; [Lu AF60097] -6.5
  5-HT uptake inhibition by Lu AF60097: 0.5785
[3]; [Lu AF60097] -7
  5-HT uptake inhibition by Lu AF60097: 0.7467
[3]; [Lu AF60097] -7.5
  5-HT uptake inhibition by Lu AF60097: 0.9156
[3]; [Lu AF60097] -8
  5-HT uptake inhibition by Lu AF60097: 0.9992
[3]; [Lu AF60097] -9
  5-HT uptake inhibition by Lu AF60097: 0.9608
[3]; [Lu AF60097] -10
  5-HT uptake inhibition by Lu AF60097: 1.013
[3]; SERT F556R
  Ki: 260 nM

From publication PMC7083837 (Nature Communications, 2020)
